Test results taken from US20260001875A1, “AMINOPYRIMIDINYL DERIVATIVES FOR THE TREATMENT OF PARKINSON'S DISEASE” (UNIVERSITY OF DUNDEE, priority 2022, published 2026).

Assays:
Rab10 pThr73 [1] = assay: Rab10 Thr73 dephosphorylation (immunoblot) in LRRK2^G2019S MEFs; type: cell-based; details: Mus musculus, read-out: pRab10 inhibited in LRRK2^G2019S MEFs
Description: (§1) The second-generation PROTACs were tested in parallel with the first generation PROTACs SD75, SD82, and SD100. The compounds were tested at 33 nM or […] concentrations for 4 hours or 24 hours, running two biological replicates per condition and achieving quantifications representative of both replicates. Analysis by quantitative immunoblotting was performed with readouts of the total LRRK2 (antibody recognizes epitope in C-terminus of protein), Rab10 pThr73 (physiological substrate) and LRRK2 pSer935 (biomarker phosphorylation site).
(§2) Primary MEFs were generated as described in a previous study (Wiggin et al., Mol. Cell Biol. 2002 April; 22(8):2871-81.). Briefly, the uterine horn was collected from adult female mice at day E12.5 and transferred to a 10 cm tissue culture dish containing cold PBS. Two forceps were used to tear the yolk sacs to isolate each embryo. Forceps were cleaned thoroughly with 70% ethanol between each embryo isolation. The embryos were culled, and a tissue piece was collected in a PCR tube for genotyping. The red tissue of the embryo, which grows to become the heart and liver, was removed. The remainder of the embryo was minced with a scalpel blade and incubated with 7.5 ml trypsin-EDTA solution for 10 minutes in a 37° C. tissue culture CO2 incubator. The dish was removed from the incubator and checked under a light microscope for single cells. 7.5 ml complete media was added to the trypsinised cells, and the cell suspension was transferred to a 15 ml Falcon tube, centrifuged at 1200 rpm for 5 minutes at room temperature. The trypsin was aspirated, the cell pellet was resuspended in 5 ml fresh complete media, and the cell suspension was plated in a 60 mm tissue culture dish and incubated in a 37° C., 5% CO2 tissue culture incubator. The MEFs at this stage were considered as passage 0 and were passaged and expanded for experimental use once the genotype was confirmed by allelic sequencing and immunoblotting. MEFs were cultured in Dulbecco's modified Eagle medium (DMEM) containing 10% (v/v) fetal bovine serum (FBS), 2 mM L-glutamine, 100 U/ml penicillin, and 100 μg/ml streptomycin supplemented with 1× non-essential amino acids and 1 mM sodium pyruvate.
Culturing and passaging of adherent cell lines were carried out using aseptic technique in CL1 or CL2 (for PBMC isolation) biological safety cabinets. All cells were incubated in a 37° C. incubator with 5% CO2. Cell lines were regularly tested for mycoplasma contamination. For western blot assay, the cells were seeded in 6-well plates. […] The cells were immediately placed on ice and were scraped and collected into 1.5 ml Eppendorf tubes. Cell lysates were incubated on ice for 10 minutes prior to centrifugation at 15,000 g at 4° C. for 15 minutes. The cell pellet was discarded, and supernatant was collected for analysis by quantitative immunoblotting. For long term storage, the supernatant was flash frozen and stored at −80° C. Protein concentrations of cell lysates were determined using the Bradford assay.
Cell lysates containing a quarter of a volume of 4× NuPAGE LDS sample buffer (NP0007) supplemented with 5% β-mercaptoethanol, were heated at 95° C. for 5 minutes. 15 to 20 μg of samples were loaded onto pre-cast 4-12% Bis-Tris midi 20W or 26W gels (Thermofisher Scientific®, Cat #WG1402BOX or WG1403BOX) and resolved at 130 V for 2 hours with NuPAGE MOPS SDS running buffer (Thermofisher Scientific® Cat #NP0001-02). Proteins were electrophoretically transferred onto a 0.45 μm nitrocellulose membrane (GE Healthcare, Amersham Protran® Supported 0.45 mm NC) at 90 V for 90 min on ice in transfer buffer (48 mM Tris base and 39 mM glycine supplemented with 20% methanol). The transferred membrane was blocked with 5% (w/v) skim milk powder dissolved in tris-buffered saline with tween (TBS-T) (50 mM Tris base, 150 mM sodium chloride (NaCl), 0.1% (v/v) Tween-20) at room temperature for 1 hour.

Rab10 pThr73 [2] = assay: Rab10 Thr73 dephosphorylation (immunoblot) in WT MEFs; type: cell-based, mouse; details: Mus musculus, read-out: pRab10 inhibited in WT MEFs
Description: as §1, with “Western blot degradation assays for the LRRK2 protacs were performed with WT and PD-associated LRRK2 [G2019S] mouse embryonic fibroblasts (MEFs). The second-generation” for “The second-generation”
as §2
Culturing and passaging of adherent cell lines were carried out using aseptic technique in CL1 or CL2 (for PBMC isolation) biological safety cabinets. All cells were incubated in a 37° C. incubator with 5% CO2. Cell lines were regularly tested for mycoplasma contamination. For western blot assay, the cells were seeded in 6-well plates. After treating with testing compounds at indicated concentrations and time period, the media was removed and the cells were washed with PBS and lysed in 100 μl ice-cold complete lysis buffer containing 50 mM Tris-HCl pH 7.4, 1 mM EGTA, 10 mM 2-glycerophosphate, 50 mM sodium fluoride, 5 mM sodium pyrophosphate, 270 mM sucrose, supplemented with 1 μg/ml microcystin-LR, 1 mM sodium orthovanadate, complete EDTA-free protease inhibitor cocktail (Roche) and 1% (v/v) Triton X-100. The cells were immediately placed on ice and were scraped and collected into 1.5 ml Eppendorf tubes. Cell lysates were incubated on ice for 10 minutes prior to centrifugation at 15,000 g at 4° C. for 15 minutes. The cell pellet was discarded, and supernatant was collected for analysis by quantitative immunoblotting. For long term storage, the supernatant was flash frozen and stored at −80° C. Protein concentrations of cell lysates were determined using the Bradford assay.
Cell lysates containing a quarter of a volume of 4× NuPAGE LDS sample buffer (NP0007) supplemented with 5% β-mercaptoethanol, were heated at 95° C. for 5 minutes. […]

Rab10 pThr73 [3] = assay: Rab10 Thr73 dephosphorylation (immunoblot) in LRRK2^G2019S MEFs; type: cell-based, mouse; details: Mus musculus, read-out: pRab10 inhibited in LRRK2^G2019S MEFs

Row | Structure (SMILES) | inhibition at 0.033 µM (Rab10 pThr73 [1]; 33 nM/4 h treatment) | inhibition at 0.033 µM (Rab10 pThr73 [1]; 33 nM/24 h treatment) | inhibition at 0.033 µM (Rab10 pThr73 [2]; 33 nM/4 h treatment) | inhibition at 0.033 µM (Rab10 pThr73 [2]; 33 nM/24 h treatment) | inhibition at 1 µM (Rab10 pThr73 [2]; 1 μM/4 h treatment) | inhibition at 1 µM (Rab10 pThr73 [2]; 1 μM/24 h treatment) | inhibition at 1 µM (Rab10 pThr73 [3]; 1 μM/4 h treatment) | inhibition at 1 µM (Rab10 pThr73 [3]; 1 μM/24 h treatment)
1 | CNc1nc(Nc2ccc(C(=O)N3CCN(CCCSC(C)(C)[C@H](NC(=O)C4(F)CC4)C(=O)N4C[C@H](O)C[C@H]4C(=O)NCc4ccc(-c5scnc5C)cc4)CC3)cc2OC)ncc1C(F)(F)F [XL01072, (2S,4R)-1-((R)-2-(1-fluorocyclopropane-1-carboxamido)-3-((3-(4-(3-methoxy-4-((4-(methylamino)-5-(trifluoromethyl)pyrimidin-2-yl)amino)benzoyl)piperazin-1-yl)propyl)thio)-3-methylbutanoyl)-4-hydroxy-N-(4-(4-methylthiazol-5-yl)benzyl)pyrrolidine-2-carboxamide] | 0 to 70% | 0 to 90% | 0 to 40% | 0 to 60% | 10 to 95% | 30 to 100% | 20 to 100% | 10 to 100%
2 | CNc1nc(Nc2ccc(C(=O)N3CCN(CCOCCOCCSC(C)(C)[C@@H](NC(=O)C4(F)CC4)C(=O)N4C[C@H](O)C[C@H]4C(=O)NCc4ccc(-c5scnc5C)cc4)CC3)cc2OC)ncc1C(F)(F)F [XL01078B, (2S,4R)-1-((S)-2-(1-fluorocyclopropane-1-carboxamido)-3-((2-(2-(2-(4-(3-methoxy-4-((4-(methylamino)-5-(trifluoromethyl)pyrimidin-2-yl)amino)benzoyl)piperazin-1-yl)ethoxy)ethoxy)ethyl)thio)-3-methylbutanoyl)-4-hydroxy-N-(4-(4-methylthiazol-5-yl)benzyl)pyrrolidine-2-carboxamide] | 0 to 70% | 0 to 90% | 0 to 40% | 0 to 60% | 10 to 95% | 30 to 100% | 20 to 100% | 10 to 100%
3 | CNc1nc(Nc2ccc(C(=O)N3CCN(Cc4ccc(CSC(C)(C)[C@H](NC(=O)C5(F)CC5)C(=O)N5C[C@H](O)C[C@H]5C(=O)NCc5ccc(-c6scnc6C)c(F)c5)cc4)CC3)cc2OC)ncc1Cl [XL01121, (2S,4R)-1-((R)-3-((4-((4-(4-((5-chloro-4-(methylamino)pyrimidin-2-yl)amino)-3-methoxybenzoyl)piperazin-1-yl)methyl)benzyl)thio)-2-(1-fluorocyclopropane-1-carboxamido)-3-methylbutanoyl)-N-(3-fluoro-4-(4-methylthiazol-5-yl)benzyl)-4-hydroxypyrrolidine-2-carboxamide] | 0 to 70% | 0 to 90% | 0 to 40% | 0 to 60% | 10 to 95% | 30 to 100% | 20 to 100% | 10 to 100%
4 | CNc1nc(Nc2ccc(C(=O)N3CCN(CCCN4CCN(c5ccc6c(c5)C(=O)N(C5CCC(=O)NC5=O)C6=O)CC4)CC3)cc2OC)ncc1Cl (stereo not drawn) [SD11, 5-(4-(3-(4-(4-((5-chloro-4-(methylamino)pyrimidin-2-yl)amino)-3-methoxybenzoyl)piperazin-1-yl)propyl)piperazin-1-yl)-2-(2,6-dioxopiperidin-3-yl)isoindoline-1,3-dione] | 0 to 60% | 0 to 70% | 0 to 25% | 10 to 40% | 18 to 90% | 30 to 90% | 30 to 95% | 30 to 100%
5 | CNc1nc(Nc2ccc(C(=O)N3CCN(CC#CCSC(C)(C)[C@H](NC(=O)C4(F)CC4)C(=O)N4C[C@H](O)C[C@H]4C(=O)NCc4ccc(-c5scnc5C)cc4)CC3)cc2OC)ncc1Cl [XL01076, (2S,4R)-1-((R)-3-((4-(4-(4-((5-chloro-4-(methylamino)pyrimidin-2-yl)amino)-3 methoxybenzoyl)piperazin-1-yl)but-2-yn-1-yl)thio)-2-(1-fluorocyclopropane-1-carboxamido)-3-methylbutanoyl)-4-hydroxy-N-(4-(4-methylthiazol-5-yl)benzyl)pyrrolidine-2-carboxamide] | 0 to 70% | 0 to 90% | 0 to 40% | 0 to 60% | 10 to 95% | 30 to 100% | 20 to 100% | 10 to 100%
6 | CNc1nc(Nc2ccc(C(=O)N3CCN(CCCSC(C)(C)[C@H](NC(=O)C4(F)CC4)C(=O)N4C[C@H](O)C[C@H]4C(=O)N[C@@H](C)c4ccc(-c5scnc5C)cc4)CC3)cc2OC)ncc1Cl [XL01118, (2S,4R)-1-((R)-3-((3-(4-(4-((5-chloro-4-(methylamino)pyrimidin-2-yl)amino)-3-methoxybenzoyl)piperazin-1-yl)propyl)thio)-2-(1-fluorocyclopropane-1-carboxamido)-3-methylbutanoyl)-4-hydroxy-N—((S)-1-(4-(4-methylthiazol-5-yl)phenyl)ethyl)pyrrolidine-2-carboxamide] | 0 to 70% | 0 to 90% | 0 to 40% | 0 to 60% | 10 to 95% | 30 to 100% | 20 to 100% | 10 to 100%
